Reference: ChEMBL document CHEMBL5036301, “Heteroaryl ether analogues of an antileishmanial 7-substituted 2-nitroimidazooxazine lead afford attenuated hERG risk: In vitro and in vivo appraisal” (Eur J Med Chem, 2021)
Converted amounts (≈) assume the structure as drawn. Values belong to the molecule of their own block, whether it stands above or below them.

Legend:
[1] = system: Leishmania donovani; assay: Antileishmanial activity against Leishmania donovani amastigotes infected in BALB/C mouse assessed as reduction in parasite burden in liver tissue at 6.25 mg/kg, po administered once per day for 5 days relative to control; type: functional; settings: 120 h, time 5 day
[2] = system: Leishmania donovani; assay: Antileishmanial activity against Leishmania donovani amastigotes infected in BALB/C mouse assessed as reduction in parasite burden in liver tissue at 12.5 mg/kg, po administered once per day for 5 days relative to control; type: functional; settings: 120 h, time 5 day
[3] = system: Leishmania infantum; assay: Antileishmanial activity against Leishmania infantum amastigotes infected in golden hamster assessed as reduction in parasite load in bone marrow tissue at 50 mg/kg, po administered once daily for 5 days relative to control; type: functional; settings: 120 h, time 5 day
[4] = system: Leishmania infantum; assay: Antileishmanial activity against Leishmania infantum amastigotes infected in golden hamster assessed as reduction in parasite load in liver tissue at 50 mg/kg, po administered once daily for 5 days relative to control; type: functional; settings: 120 h, time 5 day
[5] = system: Leishmania infantum; assay: Antileishmanial activity against Leishmania infantum amastigotes infected in golden hamster assessed as reduction in parasite load in spleen tissue at 50 mg/kg, po administered once daily for 5 days relative to control; type: functional; settings: 120 h, time 5 day
[6] = Stability of compound in human liver microsomes assessed as percentage of parent compound remaining at 1 uM measured after 1 hr
[7] = system: Leishmania infantum; assay: Antileishmanial activity against Leishmania infantum MHOM/MA(BE)/67 amastigotes infected in macrophages assessed as reduction in parasite burden by giemsa staining based microscopic analysis; type: functional, organism-based
[8] = Kinetic solubility of compound in water at pH7 by HPLC analysis; settings: pH 7
[9] = Selectivity index, ratio IC50 for cytotoxicity against human MRC5 cells to IC50 for antileishmanial activity against Leishmania infantum MHOM/MA(BE)/67 amastigotes infected in macrophages
[10] = system: Leishmania donovani; assay: Antileishmanial activity against Leishmania donovani amastigotes infected in BALB/C mouse assessed as reduction in parasite burden in liver tissue at 50 mg/kg, po administered once per day for 5 days relative to control; type: functional; settings: 120 h, time 5 day
[11] = system: MRC5; assay: Cytotoxicity against human MRC5 cells assessed as cell viability after 72 hrs by fluorimetric analysis; type: ADME, cell-based; settings: MRC5, 72 h
[12] = Stability of compound in CD-1 mouse liver microsomes assessed as percentage of parent compound remaining at 1 uM measured after 1 hr
[13] = system: Trypanosoma cruzi; assay: Antitrypanosomal activity against Trypanosoma cruzi Tulahuen CL2 infected in human MRC-5 cells assessed as parasite growth; type: functional, organism-based; settings: Tulahuen CL2, MRC5
[14] = Stability of compound in hamster liver microsomes assessed as percentage of parent compound remaining at 1 uM measured after 1 hr; settings: chinese hamster
[15] = in vivo; settings: mouse, po, 25 mg/kg
[16] = Stability of compound in CD-1 mouse liver microsomes assessed as percentage of parent compound remaining at 0.5 uM measured after 30 mins; type: ADME, Microsome; settings: read-out: Stability
[17] = Clearance in mouse at 1 mg/kg, iv measured upto 24 hrs LC-MS/MS analysis; settings: in vivo
[18] = in vivo; settings: mouse, po, 25 mg/kg; remark: listed apart in the source
[19] = Stability of compound in hamster liver microsomes assessed as percentage of parent compound remaining at 0.5 uM measured after 30 mins; type: ADME, Cricetulus griseus, Microsome; settings: chinese hamster, read-out: Stability
[20] = Initial plasma concentration in mouse at 1 mg/kg, iv measured upto 24 hrs LC-MS/MS analysis
[21] = system: Leishmania donovani; assay: Antileishmanial activity against Leishmania donovani amastigotes infected in mouse J774A.1 cells incubated for 72 hrs by luciferase assay; type: functional, organism-based; settings: J774.A1, 72 h
[22] = Half life in mouse at 1 mg/kg, iv measured upto 24 hrs LC-MS/MS analysis; settings: in vivo
[23] = Stability of compound in human liver microsomes assessed as percentage of parent compound remaining at 0.5 uM measured after 30 mins; type: ADME, Microsome; settings: read-out: Stability
[24] = Volume of distribution at steady state in mouse at 1 mg/kg, iv measured upto 24 hrs LC-MS/MS analysis; settings: in vivo
[25] = AUClast in mouse at 25 mg/kg, po measured upto 24 hrs LC-MS/MS analysis; settings: in vivo
[26] = AUClast in mouse at 1 mg/kg, iv measured upto 24 hrs LC-MS/MS analysis; settings: in vivo
[27] = molecular target: hERG (KCNH2) (Homo sapiens, UniProt Q12809); assay: Inhibition of human ERG expressed in HEK293 cells at 10 uM relative to control; type: cell-based; settings: HEK293 cells expressing human ERG
Sequence of hERG (KCNH2) (Q12809 whole entry): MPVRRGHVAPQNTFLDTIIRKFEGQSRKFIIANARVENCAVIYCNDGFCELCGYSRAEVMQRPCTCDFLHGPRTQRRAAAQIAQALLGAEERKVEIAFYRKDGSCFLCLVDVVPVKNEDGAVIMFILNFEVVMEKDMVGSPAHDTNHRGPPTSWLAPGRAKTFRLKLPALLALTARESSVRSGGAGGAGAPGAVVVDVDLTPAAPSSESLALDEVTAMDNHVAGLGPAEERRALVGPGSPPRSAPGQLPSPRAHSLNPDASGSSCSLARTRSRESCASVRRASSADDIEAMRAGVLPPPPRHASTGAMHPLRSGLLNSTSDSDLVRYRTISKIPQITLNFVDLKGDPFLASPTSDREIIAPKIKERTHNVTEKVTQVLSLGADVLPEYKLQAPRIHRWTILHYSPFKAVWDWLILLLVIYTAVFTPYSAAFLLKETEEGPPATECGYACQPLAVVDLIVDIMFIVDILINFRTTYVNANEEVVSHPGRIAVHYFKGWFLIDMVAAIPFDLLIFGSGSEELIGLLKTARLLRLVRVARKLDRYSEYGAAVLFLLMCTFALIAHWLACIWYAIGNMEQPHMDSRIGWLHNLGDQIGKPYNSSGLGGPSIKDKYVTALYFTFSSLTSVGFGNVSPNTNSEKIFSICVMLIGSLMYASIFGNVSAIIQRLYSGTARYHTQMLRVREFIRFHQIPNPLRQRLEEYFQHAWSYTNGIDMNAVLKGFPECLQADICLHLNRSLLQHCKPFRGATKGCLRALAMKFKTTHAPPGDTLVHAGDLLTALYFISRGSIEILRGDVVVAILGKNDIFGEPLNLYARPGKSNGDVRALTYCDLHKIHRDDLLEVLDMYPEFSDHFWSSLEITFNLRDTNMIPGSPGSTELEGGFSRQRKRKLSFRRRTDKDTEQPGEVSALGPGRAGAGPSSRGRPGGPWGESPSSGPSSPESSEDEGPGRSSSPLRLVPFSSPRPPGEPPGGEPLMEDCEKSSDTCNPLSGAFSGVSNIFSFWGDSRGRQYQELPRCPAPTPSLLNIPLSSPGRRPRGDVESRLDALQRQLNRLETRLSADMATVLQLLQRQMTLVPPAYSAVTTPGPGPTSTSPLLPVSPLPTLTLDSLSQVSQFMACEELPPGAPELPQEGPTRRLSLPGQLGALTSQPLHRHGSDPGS

[28] = in vivo; settings: mouse, po, 25 mg/kg; remark: listed apart in the source
[29] = system: Leishmania donovani; assay: Antileishmanial activity against Leishmania donovani amastigotes infected in BALB/C mouse assessed as reduction in parasite burden in liver tissue at 25 mg/kg, po administered once per day for 5 days relative to control; settings: 120 h, read-out: INH
[30] = system: Leishmania infantum; assay: animal or person; settings: in Mesocricetus auratus, po, 120 h, read-out: INH
Description: Antileishmanial activity against Leishmania infantum amastigotes infected in golden hamster assessed as reduction in parasite load in spleen tissue at 12.5 mg/kg, po administered once daily for 5 days relative to control

[31] = system: Leishmania donovani; assay: Antileishmanial activity against Leishmania donovani amastigotes infected in BALB/C mouse assessed as reduction in parasite burden in liver tissue at 3.13 mg/kg, po administered once per day for 5 days relative to control; type: functional; settings: 120 h, time 5 day
[32] = system: Leishmania infantum; assay: Antileishmanial activity against Leishmania infantum amastigotes infected in golden hamster assessed as reduction in parasite load in liver tissue at 25 mg/kg, po administered once daily for 5 days relative to control; settings: in Mesocricetus auratus, 120 h, read-out: INH
[33] = system: Leishmania infantum; assay: animal or person; settings: in Mesocricetus auratus, po, 120 h, read-out: INH; remark: listed apart in the source
Description: Antileishmanial activity against Leishmania infantum amastigotes infected in golden hamster assessed as reduction in parasite load in liver tissue at 12.5 mg/kg, po administered once daily for 5 days relative to control

[34] = system: Leishmania infantum; assay: animal or person; settings: in Mesocricetus auratus, po, 120 h, read-out: INH; remark: listed apart in the source
Description: Antileishmanial activity against Leishmania infantum amastigotes infected in golden hamster assessed as reduction in parasite load in bone marrow tissue at 12.5 mg/kg, po administered once daily for 5 days relative to control

[35] = system: Leishmania infantum; assay: Antileishmanial activity against Leishmania infantum amastigotes infected in golden hamster assessed as reduction in parasite load in bone marrow tissue at 25 mg/kg, po administered once daily for 5 days relative to control; settings: in Mesocricetus auratus, 120 h, read-out: INH

Structure (SMILES): C[C@]1(COc2ccc(OC(F)(F)F)cc2)Cn2cc([N+](=O)[O-])nc2O1
inhibition in vivo at 6.25 mg/kg [1]: > 99%
inhibition in vivo at 12.5 mg/kg [2]: > 99%

Structure (SMILES): CC1(COc2ccc(OC(F)(F)F)cc2)CCn2cc([N+](=O)[O-])nc2O1 (centres undefined)
inhibition in vivo at 50 mg/kg [3]: 99.5%
inhibition in vivo at 50 mg/kg [4]: 100%
inhibition in vivo at 12.5 mg/kg [2]: > 99%
inhibition in vivo at 50 mg/kg [5]: 99.7%

remaining at 1 h, 1 µM [6]: 91%
IC50 [7]: 2200 nM
solubility kinetic [8]: 17 µg/mL (≈ 47.3 µM)
remaining at 1 h, 1 µM [12]: 90%
remaining at 1 h, 1 µM [14]: 36%
Structure (SMILES): CC1(COc2cnc(C(F)(F)F)cn2)CCn2cc([N+](=O)[O-])nc2O1 (centres undefined)
selectivity ratio [9]: > 29
inhibition in vivo at 50 mg/kg [10]: 17%
IC50 [11]: > 64000 nM
IC50 [13]: 940 nM

Tmax at 24 h [15]: 2 h
remaining at 0.5 h, 0.5 µM [16]: 100%
IC50 [7]: > 64000 nM
solubility kinetic [8]: 6.6 µg/mL (≈ 21.2 µM)
clearance at 24 h [17]: 7.3 mL/min/kg
bioavailability at 24 h [18]: 15%
remaining at 0.5 h, 0.5 µM [19]: 90%
C0 at 24 h [20]: 1900 ng/mL
IC50 [21]: 120 nM
AUC at 24 h [22]: 580 ng·h/mL
remaining at 0.5 h, 0.5 µM [23]: 99%
Vd at 24 h [24]: 0.37 L/kg
AUC(0-t) at 24 h [25]: 3830 ng·h/mL
AUC(0-t) at 24 h [26]: 2070 ng·h/mL
Cmax at 24 h [28]: 760 ng/mL
Structure (SMILES): O=[N+]([O-])c1cn2c(n1)OC(COc1ncc(Cl)cn1)CC2 (centres undefined)
IC50 [11]: > 64000 nM
IC50 [13]: 39000 nM
inhibition at 10 µM [27]: 12%

Structure (SMILES): C[C@]1(COc2ccc(OC(F)(F)F)cc2)CCn2cc([N+](=O)[O-])nc2O1
inhibition in vivo at 25 mg/kg [29]: > 99%
inhibition in vivo at 12.5 mg/kg [30]: 59.5%
inhibition in vivo at 50 mg/kg [3]: 96.7%
inhibition in vivo at 3.13 mg/kg [31]: 51%
inhibition in vivo at 50 mg/kg [4]: 99.6%
IC50 [21]: 60 nM
inhibition in vivo at 25 mg/kg [32]: 93.6%
inhibition in vivo at 12.5 mg/kg [33]: 67.8%
inhibition in vivo at 50 mg/kg [5]: 98%
inhibition in vivo at 12.5 mg/kg [34]: 42.5%
inhibition in vivo at 25 mg/kg [35]: 81.5%
